Where “and” joins values, the source holds several entries; their conditions need not be identical. Equal values may be shown once. Inconclusive results and toxic doses are left out. Rule as the data show it: active = T/C of 150% or more; inactive = T/C below 125%.
System: L1210 leukemia ip in BDF1 mice, survival T/C
Experiment: NCI In Vivo Anticancer Drug Screen. Data for tumor model L1210 Leukemia (intraperitoneal) in B6D2F1 (BDF1) mice
Conditions: higher = longer survival
Summary of the method: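 Transplantable tumor model; survival measured in treated vs vehicle control mice. Value = treated/control.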

[1] = endpoint: mean survival time, dose: 200.0 mg/kg/injection, schedule: Q01DX001 (ip), vehicle: saline
[2] = endpoint: mean survival time, dose: 400.0 mg/kg/injection, schedule: Q01DX001 (ip), vehicle: saline
[3] = endpoint: mean survival time, dose: 100.0 mg/kg/injection, schedule: Q01DX001 (ip), vehicle: carboxymethylcellulose (CMC)
[4] = endpoint: mean survival time, dose: 100.0 mg/kg/injection, schedule: Q04DX003 (ip), vehicle: saline
[5] = endpoint: mean survival time, dose: 200.0 mg/kg/injection, schedule: Q04DX003 (ip), vehicle: saline
[6] = endpoint: mean survival time, dose: 400.0 mg/kg/injection, schedule: Q04DX003 (ip), vehicle: saline
[7] = endpoint: mean survival time, dose: 100.0 mg/kg/injection, schedule: Q01DX001 (ip), vehicle: saline
[8] = endpoint: mean survival time, dose: 100.0 mg/kg/injection, schedule: Q04DX002 (ip), vehicle: Klucel (hydroxypropylcellulose) (HPC)
[9] = endpoint: mean survival time, dose: 200.0 mg/kg/injection, schedule: Q04DX002 (ip), vehicle: Klucel (hydroxypropylcellulose) (HPC)
[10] = endpoint: mean survival time, dose: 100.0 mg/kg/injection, schedule: Q01DX009 (ip), vehicle: saline
[11] = endpoint: mean survival time, dose: 200.0 mg/kg/injection, schedule: Q01DX009 (ip), vehicle: saline
[12] = endpoint: mean survival time, dose: 400.0 mg/kg/injection, schedule: Q01DX009 (ip), vehicle: saline
[13] = endpoint: mean survival time, dose: 50.0 mg/kg/injection, schedule: Q01DX009 (ip), vehicle: saline with Tween-80
[14] = endpoint: mean survival time, dose: 100.0 mg/kg/injection, schedule: Q01DX009 (ip), vehicle: saline with Tween-80
[15] = endpoint: mean survival time, dose: 200.0 mg/kg/injection, schedule: Q01DX009 (ip), vehicle: saline with Tween-80
[16] = endpoint: mean survival time, dose: 100.0 mg/kg/injection, schedule: Q01DX009 (ip), vehicle: Klucel (hydroxypropylcellulose) (HPC)
[17] = endpoint: mean survival time, dose: 200.0 mg/kg/injection, schedule: Q01DX009 (ip), vehicle: Klucel (hydroxypropylcellulose) (HPC)
[18] = endpoint: mean survival time, dose: 400.0 mg/kg/injection, schedule: Q01DX009 (ip), vehicle: Klucel (hydroxypropylcellulose) (HPC)
[19] = endpoint: mean survival time, dose: 100.0 mg/kg/injection, schedule: Q04DX003 (ip), vehicle: saline with Tween-80
[20] = endpoint: mean survival time, dose: 200.0 mg/kg/injection, schedule: Q04DX003 (ip), vehicle: saline with Tween-80
[21] = endpoint: mean survival time, dose: 400.0 mg/kg/injection, schedule: Q04DX003 (ip), vehicle: saline with Tween-80
[22] = endpoint: mean survival time, dose: 400.0 mg/kg/injection, schedule: Q01DX009 (ip), vehicle: saline with Tween-80

Measured: T/C

c1ccc(CNc2ncnc3[nH]ncc23)cc1
inactive: endpoint: mean survival time, dose: 8.0 mg/kg/injection, schedule: Q01DX009 (ip), vehicle: saline 98 % of control | endpoint: mean survival time, dose: 16.0 mg/kg/injection, schedule: Q01DX009 (ip), vehicle: saline 103 % of control | endpoint: mean survival time, dose: 25.0 mg/kg/injection, schedule: Q01DX Z (ip), vehicle: carboxymethylcellulose (CMC) 123 % of control | endpoint: mean survival time, dose: 32.0 mg/kg/injection, schedule: Q01DX009 (ip), vehicle: saline 98 % of control | endpoint: mean survival time, dose: 50.0 mg/kg/injection, schedule: Q01DX Z (ip), vehicle: carboxymethylcellulose (CMC) 109 % of control | [1] 105 % of control | [2] 101 % of control | endpoint: mean survival time, dose: 800.0 mg/kg/injection, schedule: Q01DX001 (ip), vehicle: saline 102 % of control | endpoint: median survival time, dose: 8.0 mg/kg/injection, schedule: Q01DX009 (ip), vehicle: saline 93 % of control and 100 % of control and 118 % of control | endpoint: median survival time, dose: 16.0 mg/kg/injection, schedule: Q01DX009 (ip), vehicle: saline 100 % of control (2×) and 112 % of control | endpoint: median survival time, dose: 32.0 mg/kg/injection, schedule: Q01DX009 (ip), vehicle: saline 105 % of control and 112 % of control | endpoint: median survival time, dose: 64.0 mg/kg/injection, schedule: Q01DX009 (ip), vehicle: saline 100 % of control (2×) and 122 % of control

COc1ccc(N2C(=O)CCC2=S)cc1
inactive: endpoint: mean survival time, dose: 50.0 mg/kg/injection, schedule: Q01DX001 (ip), vehicle: carboxymethylcellulose (CMC) 104 % of control | [3] 96 % of control | endpoint: mean survival time, dose: 200.0 mg/kg/injection, schedule: Q01DX001 (ip), vehicle: carboxymethylcellulose (CMC) 102 % of control | endpoint: mean survival time, dose: 400.0 mg/kg/injection, schedule: Q01DX001 (ip), vehicle: carboxymethylcellulose (CMC) 102 % of control

c1ccc(ON=C2c3ccccc3-c3ccccc32)cc1
inactive: [4] 102 % of control | [5] 96 % of control | [6] 89 % of control

O=C(O)CCN(c1ccccc1)S(=O)(=O)c1ccccc1
inactive: [7] 94 % of control | [1] 94 % of control | [2] 94 % of control

CC1=C2CCCC(=O)C2(C)CCC1=O (centres undefined)
inactive: [8] 107 % of control | [9] 96 % of control

FC(F)(F)C(F)(Cl)C(Cl)(Cl)C(F)(F)F (centres undefined)
inactive: [10] 97 % of control | [4] 100 % of control | [11] 97 % of control | [5] 101 % of control | [12] 97 % of control | [6] 90 % of control

CC(C)=NNC(=O)CC(=O)NN=C(C)C
inactive: endpoint: mean survival time, dose: 100.0 mg/kg/injection, schedule: Q04DX003 (ip), vehicle: saline sonified 89 % of control | endpoint: mean survival time, dose: 200.0 mg/kg/injection, schedule: Q04DX003 (ip), vehicle: saline sonified 87 % of control | endpoint: mean survival time, dose: 400.0 mg/kg/injection, schedule: Q04DX003 (ip), vehicle: saline sonified 94 % of control

COC(=O)C1CC(OC(C)=O)C(C(N)=O)C1 (centres undefined)
inactive: [10] 101 % of control | [11] 111 % of control | [12] 101 % of control

O=[N+]([O-])c1cc2c(c([N+](=O)[O-])c1)OCOC2
inactive: [4] 100 % of control | [5] 97 % of control | [6] 107 % of control

Cn1ccc(CCl)n1
inactive: [4] 95 % of control | [5] 97 % of control

COc1ccc(C(=O)/C=C/c2ccc(N(C)C)cc2)cc1
inactive: endpoint: mean survival time, dose: 37.5 mg/kg/injection, schedule: Q04DX003 (ip), vehicle: saline 95 % of control | endpoint: mean survival time, dose: 75.0 mg/kg/injection, schedule: Q04DX003 (ip), vehicle: saline 90 % of control | endpoint: mean survival time, dose: 150.0 mg/kg/injection, schedule: Q04DX003 (ip), vehicle: saline 89 % of control

O=C1C=CC(=O)C(SCCC(=O)O)=C1
inactive: [13] 102 % of control | [3] 101 % of control | [14] 97 % of control | [15] 96 % of control

C[C@]1(O)CC[C@H]2[C@@H]3CCC4=CC(=O)CC[C@]4(C)[C@@]3(F)C(=O)C[C@@]21C
inactive: [16] 101 % of control | endpoint: mean survival time, dose: 100.0 mg/kg/injection, schedule: Q04DX003 (ip), vehicle: other 92 % of control | [17] 101 % of control | endpoint: mean survival time, dose: 200.0 mg/kg/injection, schedule: Q04DX003 (ip), vehicle: other 108 % of control | [18] 95 % of control | endpoint: mean survival time, dose: 400.0 mg/kg/injection, schedule: Q04DX003 (ip), vehicle: other 94 % of control

CCOc1ccc(/C=C2\N=C(c3ccccc3)OC2=O)cc1OC
inactive: [16] 109 % of control | [17] 105 % of control | [18] 102 % of control

O=C1CCCCCCCC1O (centres undefined)
inactive: endpoint: mean survival time, dose: 50.0 mg/kg/injection, schedule: Q01DX001 (ip), vehicle: saline 96 % of control | [7] 98 % of control | [1] 102 % of control | [2] 104 % of control

CC1CCC(C(C)C)C(OC(=O)c2c([N+](=O)[O-])ccc([N+](=O)[O-])c2Br)C1 (centres undefined)
inactive: [16] 105 % of control | [17] 100 % of control

O=C(NCCCNC(=O)Nc1cccc(C2=NCCN2)c1)Nc1cccc(C2=NCCN2)c1
inactive: endpoint: mean survival time, dose: 8.0 mg/kg/injection, schedule: Q01DX Z (ip), vehicle: carboxymethylcellulose (CMC) 104 % of control | endpoint: mean survival time, dose: 16.0 mg/kg/injection, schedule: Q01DX Z (ip), vehicle: carboxymethylcellulose (CMC) 111 % of control | endpoint: mean survival time, dose: 32.0 mg/kg/injection, schedule: Q01DX Z (ip), vehicle: carboxymethylcellulose (CMC) 104 % of control | endpoint: mean survival time, dose: 64.0 mg/kg/injection, schedule: Q01DX Z (ip), vehicle: carboxymethylcellulose (CMC) 94 % of control

COCC(C)C=O (centres undefined)
inactive: [13] 91 % of control | [14] 91 % of control | [15] 94 % of control

O=C(Nc1ccc([N+](=O)[O-])cc1)c1ccc([N+](=O)[O-])cc1
inactive: [19] 94 % of control | [20] 94 % of control | [21] 89 % of control

CCOC(=O)c1c(Cl)nc2ccccc2c1Cl
inactive: [7] 92 % of control | [1] 97 % of control | [2] 94 % of control

CCN(CCOC(=O)Nc1ccccc1F)c1ccccc1
inactive: [14] 98 % of control | [15] 115 % of control | [22] 112 % of control

O=C(Nc1ccccc1)Nc1ccc(C(=O)CCl)cc1
inactive: endpoint: mean survival time, dose: 100.0 mg/kg/injection, schedule: Q01DX005 (ip), vehicle: saline with Tween-80 96 % of control | [19] 102 % of control | endpoint: mean survival time, dose: 200.0 mg/kg/injection, schedule: Q01DX005 (ip), vehicle: saline with Tween-80 110 % of control | [20] 112 % of control | endpoint: mean survival time, dose: 400.0 mg/kg/injection, schedule: Q01DX005 (ip), vehicle: saline with Tween-80 92 % of control | [21] 100 % of control

CC(=O)Oc1ccc(CCN(Cc2ccc3c(c2)OCO3)C(C)=O)cc1
inactive: endpoint: mean survival time, dose: 50.0 mg/kg/injection, schedule: Q04DX002 (ip), vehicle: Klucel (hydroxypropylcellulose) (HPC) 97 % of control | [8] 91 % of control | [9] 97 % of control

O=C(CCC(O)c1ccccc1)c1ccccc1 (centres undefined)
inactive: [14] 94 % of control | [19] 110 % of control | [15] 94 % of control | [20] 106 % of control | [22] 97 % of control | [21] 97 % of control

Source: PubChem BioAssay AID248 (DTP/NCI, 2004)
